Where two headings read alike, the source gives them in different places.
Legend:
HCC1806 cells = test: CTG assay of compound inhibition on cell viability (HCC1806 cells); type: cell-based; conditions: Homo sapiens, HCC1806, 144 h, read-out: IC50 in HCC1806 Cells
Protocol: CellTiter-Glo (CTG) is a rapid cell viability test method based on ATP detection. […] Adenosine triphosphate (ATP) participates in various enzymatic reactions in organisms and is an indicator of living cell metabolism. Its content directly reflects the number of living cells and cell status. During the experiment, equal volume of CTG reagent is added to the cultured cells to measure the luminescence value. The chemiluminescent signal value is proportional to the amount of ATP, thus reflecting the number of viable cells. Therefore, cell viability can be obtained by detecting the ATP content. Compounds that affect cell viability will inhibit cell viability in a concentration-dependent manner, allowing a curve to be fitted to obtain the IC50 value.
The experimental procedure is as follows: • 11. Place the cell suspension in a 15 mL centrifuge tube, centrifuge at 1000 rpm for 5 min at room temperature, discard the supernatant, and collect the cell pellet. • 12. Resuspend the cell pellet with preheated complete cell culture medium (RPMI1640+10%FBS+1%PS), and use a Countess® automated cell counter to detect cell viability and density. The cell viability must be above 90%. • 13. […] Transfer the compound solution to a 96-well plate seeded with cells (final concentration of DMSO 0.1%), and place in a cell incubator at 37°C, 5% CO2 for 6 days. • 15. […] Protect from light during the whole process. Perform optical signal readings using a SpectraMax i3x reader. • 16. Data analysis: Remaining activity (%) = 100% * (1 - ((LumDMSO - Lummedium) - Lumsample) / (LumDMSO - LumPBS/medium)). Use GraphPad Prism 9.0 software to draw an S-shaped dose-survival rate curve and calculate the IC50 value using a nonlinear regression model.

AURKA = target: T1, AURKA (Homo sapiens, UniProt O14965); type: cell-based
T1 construct: endogenous in cells; host or cells: Jurkat cells
T1 sequence (O14965 1-403): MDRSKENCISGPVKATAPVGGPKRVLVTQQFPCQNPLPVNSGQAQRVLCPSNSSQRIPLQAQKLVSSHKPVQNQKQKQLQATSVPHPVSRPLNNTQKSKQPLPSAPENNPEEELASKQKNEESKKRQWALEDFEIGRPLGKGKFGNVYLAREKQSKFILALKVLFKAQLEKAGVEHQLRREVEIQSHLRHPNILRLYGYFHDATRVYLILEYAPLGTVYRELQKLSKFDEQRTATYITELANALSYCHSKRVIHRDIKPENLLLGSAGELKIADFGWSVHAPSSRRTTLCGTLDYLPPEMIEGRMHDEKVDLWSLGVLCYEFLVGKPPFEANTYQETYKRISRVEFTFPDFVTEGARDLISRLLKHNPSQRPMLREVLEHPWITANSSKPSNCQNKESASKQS
Method in brief: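 AURKA degradation read by western blot: band signal, fluorescent or chemiluminescent, curve-fitted to derive DC50. Cells were Jurkat, plated at 1×10^6 cells/500 µL with compound, then lysed and blotted onto nitrocellulose, primary antibody overnight at 4°C.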

[1] = 100 nM compound, Jurkat cells, 24 h, Table 1
[2] = 1 µM compound, Jurkat cells, 24 h, Table 1

SMILES	IC50 (HCC1806 cells) [nM]	Percentage of AURKA Degradation Induced by 100 nM Compound in Jurkat Cells (AURKA; [1])	Percentage of AURKA Degradation Induced by 1 µM Compound in Jurkat Cells (AURKA; [2])	Percentage of AURKA Degradation Induced by 100 nM Compound in Jurkat Cells (AURKA)	Percentage of AURKA Degradation Induced by 1 µM Compound in Jurkat Cells (AURKA)
COc1cc(Nc2ncc3c(n2)-c2ccc(Cl)cc2C(c2c(F)cccc2OC)=NC3)ccc1C(=O)NC1CCN(Cc2ccc(N3CCC(=O)NC3=O)cc2)CC1 [Compound A28]	< 1000	+ (Degradation ≤ 30%)	+ (Degradation ≤ 30%)		
COc1cc(Nc2ncc3c(n2)-c2ccc(Cl)cc2C(c2c(F)cccc2OC)=NC3)ccc1C(=O)NCCN1CCN(c2ccc(N3CCC(=O)NC3=O)cn2)CC1 [Compound A29]	< 1000	+++ (Degradation > 70%)	+++ (Degradation > 70%)		
COc1cc(Nc2ncc3c(n2)-c2ccc(Cl)cc2C(c2c(F)cccc2OC)=NC3)ccc1C(=O)NCCN1CCN(c2ccc(N3CCC(=O)NC3=O)nc2)CC1 [Compound A30]	< 1000	++ (30% < Degradation ≤ 70%)	++ (30% < Degradation ≤ 70%)		
COc1cc(Nc2ncc3c(n2)-c2ccc(Cl)cc2C(c2c(F)cccc2OC)=NC3)ccc1C(=O)NCCOCCNc1ccn2c(N3CCC(=O)NC3=O)cnc2c1 [Compound A32]	> 10000	+ (Degradation ≤ 30%)	+ (Degradation ≤ 30%)		
COc1cc(Nc2ncc3c(n2)-c2ccc(Cl)cc2C(c2c(F)cccc2OC)=NC3)ccc1C(=O)N1CC2(CN(Cc3cccc4c3C(=O)N(C3CCC(=O)NC3=O)C4=O)C2)C1 (stereo not drawn) [Compound A33]	< 1000	++ (30% < Degradation ≤ 70%)	++ (30% < Degradation ≤ 70%)		
COc1cc(Nc2ncc3c(n2)-c2ccc(Cl)cc2C(c2c(F)cccc2OC)=NC3)ccc1C(=O)N1CC(N(C)CC#Cc2cccc3c2CN(C2CCC(=O)NC2=O)C3=O)C1 (stereo not drawn) [Compound A34]	< 1000	++ (30% < Degradation ≤ 70%)	++ (30% < Degradation ≤ 70%)		
COc1cc(Nc2ncc3c(n2)-c2ccc(Cl)cc2C(c2c(F)cccc2OC)=NC3)ccc1C(=O)N1CCC2(CCN(c3ccc(N4CCC(=O)NC4=O)cc3)CC2)C1 [Compound A36]	< 1000	+ (Degradation ≤ 30%)	+ (Degradation ≤ 30%)		
O=C1CCN(c2ccc(N3CCC4(CC3)CC(NC(=O)c3ccc(Nc5ncc6c(n5)-c5ccc(Cl)cc5C(c5c(F)cccc5F)=NC6)cc3)C4)cc2)C(=O)N1 [Compound A37]	< 1000	+++ (Degradation > 70%)	+++ (Degradation > 70%)		
COc1cc(Nc2ncc3c(n2)-c2ccc(Cl)cc2C(c2c(F)cccc2OC)=NC3)ccc1C(=O)NC1CC2(CCN(c3ccc(N4CCC(=O)NC4=O)cc3)CC2)C1 [Compound A38]	< 1000	+++ (Degradation > 70%)	+++ (Degradation > 70%)		
COc1cc(Nc2ncc3c(n2)-c2ccc(Cl)cc2C(c2c(F)cccc2OC)=NC3)ccc1C(=O)N(C)C1CC2(CCN(c3ccc(N4CCC(=O)NC4=O)cc3)CC2)C1 [Compound A40]	< 1000	++ (30% < Degradation ≤ 70%)	+ (Degradation ≤ 30%)		
COc1cc(Nc2ncc3c(n2)-c2ccc(Cl)cc2C(c2c(F)cccc2OC)=NC3)ccc1C(=O)N1CC2(CCN(c3ccc(N4CCC(=O)NC4=O)cc3)CC2)C1 [Compound A42]	> 10000	+ (Degradation ≤ 30%)	+ (Degradation ≤ 30%)		
O=C1CCN(c2ccc(N3CC4(CCN(C(=O)c5ccc(Nc6ncc7c(n6)-c6ccc(Cl)cc6C(c6c(F)cccc6F)=NC7)cc5)C4)C3)cc2)C(=O)N1 [Compound A43]	> 10000	+ (Degradation ≤ 30%)	+ (Degradation ≤ 30%)		
COc1cc(Nc2ncc3c(n2)-c2ccc(Cl)cc2C(c2c(F)cccc2OC)=NC3)ccc1C(=O)N1CCC2(C1)CN(c1ccc(N3CCC(=O)NC3=O)cc1)C2 [Compound A44]	< 1000	+ (Degradation ≤ 30%)	+ (Degradation ≤ 30%)		
COc1cc(Nc2ncc3c(n2)-c2ccc(Cl)cc2C(c2c(F)cccc2OC)=NC3)ccc1C(=O)NCCN1CCN(c2ncc(N3CCC(=O)NC3=O)cn2)CC1 [Compound A45]	< 1000	++ (30% < Degradation ≤ 70%)	++ (30% < Degradation ≤ 70%)		
COc1cccc(F)c1C1=NCc2cnc(Nc3ccc(C(=O)NC4CC5(CCN(c6ccc(N7CCC(=O)NC7=O)cc6)CC5)C4)cc3)nc2-c2ccc(Cl)cc21 [Compound A46]	< 1000	+++ (Degradation > 70%)	+++ (Degradation > 70%)		
COc1cc(Nc2ncc3c(n2)-c2ccc(Cl)cc2C(c2c(F)cccc2OC)=NC3)ccc1C(=O)NCCN1CCN(c2ccc(C3CCC(=O)NC3=O)cc2)CC1 (stereo not drawn) [Compound A47]	< 1000			++ (key: +: Degradation ≤ 30%; ++: 30% < Degradation ≤ 70%; +++: Degradation > 70%)	+ (key: +: Degradation ≤ 30%; ++: 30% < Degradation ≤ 70%; +++: Degradation > 70%)
COc1cc(Nc2ncc3c(n2)-c2ccc(Cl)cc2C(c2c(F)cccc2OC)=NC3)ccc1C(=O)NC1CN(CCc2ccc(N3CCC(=O)NC3=O)cc2)C1 [Compound A48]	< 1000	+ (Degradation ≤ 30%)	+ (Degradation ≤ 30%)		
COc1cc(Nc2ncc3c(n2)-c2ccc(Cl)cc2C(c2c(F)cccc2OC)=NC3)ccc1C(=O)N[C@H]1C[C@H](C#Cc2ccc(N3CCC(=O)NC3=O)cc2)C1 [Compound A51]	1000 to 10000	++ (30% < Degradation ≤ 70%)	+++ (Degradation > 70%)		
O=C1CCN(c2cccc(C#C[C@H]3C[C@H](NC(=O)c4ccc(Nc5ncc6c(n5)-c5ccc(Cl)cc5C(c5c(F)cccc5F)=NC6)cc4)C3)c2)C(=O)N1 [Compound A52]	< 1000	++ (30% < Degradation ≤ 70%)	++ (30% < Degradation ≤ 70%)		
COc1cc(Nc2ncc3c(n2)-c2ccc(Cl)cc2C(c2c(F)cccc2OC)=NC3)ccc1C(=O)NC1CC2(CCN(c3ccc(N4CCC(=O)NC4=O)cn3)CC2)C1 [Compound A54]	< 1000	+++ (Degradation > 70%)	+++ (Degradation > 70%)		

Source: patent publication EP4818168A1, “FUSED RING COMPOUND, PHARMACEUTICAL COMPOSITION THEREOF AND USE THEREOF” (priority 2023, dated 2025)
